These results are taken from patent publication EP1377579B1 (Aventis Pharmaceuticals Inc., priority 2000, dated 2002).

One series in a line: in vivo. Particulars: male, Hsd:ICR (CD-1), mouse, plasma.
The target of another series is cdk1/cyclin B (Homo sapiens, UniProt P06493). Kind of series: Cyclin-dependent kinase assay, cdk1/cyclin B. Conditions: CDK1 IC50, nM, Histone H1, 10 µM ATP.
A further series relates to Jurkat. Kind of series: In vitro proliferation assay (MTT), Jurkat. The class given is cell-based. Conditions: Homo sapiens, MTT assay, value (SD, n) where given, read-out: Jurkat Leuk. (IC50 µM). The method, boiled down: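 A570 of DMSO-solubilized formazan was the read-out. Seeding: 1000–2500 cells/well, overnight recovery. Compound exposure: 3 days. MTT incubation: 2–4 hr, 37 C. IC50 calculated from raw absorbance.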

In a further series the test system is Colo-205. The series can be described thus: In vitro proliferation assay (MTT), Colo-205. The class given is cell-based. Conditions: Homo sapiens, COLO 205; MTT assay; value (SD, n) where given; read-out: Colo-205 Colon (IC50 µM). The procedure, abridged: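 After 3 days of compound exposure, MTT was added to Colo-205 cultures for 2–4 h at 37 °C. Formazan was dissolved in DMSO and absorbance read at 570 nm. Cells had been plated at 1000–2500/well and left to recover overnight; IC50 values came from the raw readings.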
In general terms: Tetrazolium assays rely on reduction of a dye to a coloured formazan, in cell work by metabolically active cells.

A short description of series [1]: Bioavailability experiment in mice given single intravenous cassette doses. Particulars: for Cls: mice plasma, single intravenous cassette dose; for Conc. (ng/ml) in plasma: Cassette #2, single 18 mg/kg intravenous cassette dose, BLQ = below assay quantification limit.
The next series has as its target cdk2/cyclin E (Homo sapiens, UniProt P24941). The series can be described thus: Cyclin-dependent kinase assay, cdk2/cyclin E. Particulars: CDK2 IC50, nM, GST-pRb substrate, 10 µM ATP.
Another series relates to MDA-MB-435. Kind of series: In vitro proliferation assay (MTT), MDA-MB-435. The class given is cell-based, human. Conditions: Homo sapiens, MDA-MB-435, MTT assay; value (SD, n) where given; read-out: MB-435 Breast (IC50 µM). The procedure, abridged:
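A570 readout of DMSO-solubilized MTT formazan after 3-day compound exposure; IC50 from raw data. Cells plated 1000–2500/well and recovered overnight before dosing.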

Series [2] in a line: Red blood cell binding, human whole blood. The class given is in vitro ADME. Conditions: 30 minutes at 37°C, 500 ng/ml.

For orientation: AUC(0-inf) means total exposure, with the tail of the curve extrapolated. The low end stands for less exposure, the high end for more exposure. Usually Cmax stands for the maximum level reached in the sampled fluid or tissue. The term half-life denotes the time needed for the level to fall by half in the phase considered. A higher half-life goes with slow decline. Usually IC50 stands for the concentration needed to halve the response being measured.

Chain of cdk1/cyclin B (P06493 whole entry): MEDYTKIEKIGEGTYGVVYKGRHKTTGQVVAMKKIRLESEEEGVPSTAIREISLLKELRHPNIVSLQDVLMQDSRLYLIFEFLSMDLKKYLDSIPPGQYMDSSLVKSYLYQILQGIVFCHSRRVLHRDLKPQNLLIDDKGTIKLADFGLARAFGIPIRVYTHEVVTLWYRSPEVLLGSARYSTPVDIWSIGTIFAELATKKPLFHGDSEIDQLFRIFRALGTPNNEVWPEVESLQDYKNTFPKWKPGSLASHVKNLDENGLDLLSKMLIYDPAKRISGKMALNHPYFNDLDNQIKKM
Chain of cdk1/cyclin B (P14635 whole entry partner): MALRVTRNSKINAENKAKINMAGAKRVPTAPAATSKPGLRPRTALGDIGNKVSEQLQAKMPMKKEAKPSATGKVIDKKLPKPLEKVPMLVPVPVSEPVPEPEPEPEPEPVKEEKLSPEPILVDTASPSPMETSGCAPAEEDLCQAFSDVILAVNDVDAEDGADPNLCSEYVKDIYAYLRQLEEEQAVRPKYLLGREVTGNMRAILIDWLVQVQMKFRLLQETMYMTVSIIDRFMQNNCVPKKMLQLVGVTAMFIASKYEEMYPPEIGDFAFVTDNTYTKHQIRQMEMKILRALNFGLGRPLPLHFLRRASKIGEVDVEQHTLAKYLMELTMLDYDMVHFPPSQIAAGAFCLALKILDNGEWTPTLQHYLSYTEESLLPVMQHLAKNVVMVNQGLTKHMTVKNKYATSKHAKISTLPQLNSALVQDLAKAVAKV

In the case of `Cl.Cl.N[C@H]1CC[C@H](Nc2nc(NC3CCN(C(=O)Nc4ccc(C(F)(F)F)cc4)CC3)c3ncn(C4CCCC4)c3n2)CC1` [compound 149, trans-4-[2-(4-Amino-cyclohexylamino)-9-cyclopentyl-9H-purin-6-ylamino]-piperidine-1-carboxylic acid (4-trifluoromethyl-phenyl)-amide dihydrochloride], in the series “in vivo” (intravenous, 3 mg/kg), the concentration at 0.083 h was 3110 ± 703 ng/mL, the concentration at 0.25 h turned out to be 419 ± 69.8 ng/mL, the concentration at 0.5 h stood at 133 ± 10.2 ng/mL and the concentration at 1 h is 59.8 ± 17.3 ng/mL. Moreover, in “in vivo” (intravenous, 3 mg/kg), the concentration at 3 h was 15.5 ± 4.8 ng/mL, the concentration at 6 h stood at 4.1 ± 2.1 ng/mL and the concentration at 8 h is 5.4 ± 0.5 ng/mL. Moreover, in “in vivo” (iv, 3 mg/kg), the AUC(0-inf) was determined as 1020 ng·h/mL, the Cmax was determined as 3110 ng/mL and the half-life was 1.6 h. In addition, the IC50 on cdk1/cyclin B is 30 nM. In addition, the IC50 with Jurkat is 0.22 µM. The IC50 with Colo-205 came out at 0.09 µM. Moreover, the Cls in series [1] (3 mg/kg/compound (15 mg/kg Total Dose), Cassette #3) was found to be 49.1 mL/min/kg. Besides, the Conc. in plasma result in series [1] (mice, single 15 mg/kg intravenous cassette dose (3 mg/kg/compound), Cassette #3, 24 h, BLQ = below assay quantification limit (approximately 1 ng/ml)) is “BLQ”. For the same compound, the IC50 against cdk2/cyclin E was 51 nM. Besides, the IC50 with MDA-MB-435 was found to be 0.15 µM. Further, in series [2], the “Mean Red Blood Cell to Plasma Ratio” value worked out at 2.8.

With `CCOC(=O)c1ccc(NC(=O)N2CCC(Nc3nc(N[C@H]4CC[C@H](N)CC4)nc4c3ncn4C3CCCC3)CC2)cc1.Cl.Cl` [compound 154, trans-4-[(1-{4-[2-(4-Amino-cyclohexylamino)-9-cyclopentyl-9H-purin-6-ylamino]-piperidin-1-yl}-methanoyl)-amino]-benzoic acid ethyl ester dihydrochloride], in the series “in vivo” (iv, 3 mg/kg), the AUC(0-inf) came to 1580 ng·h/mL, the Cmax amounted to 4850 ng/mL and the half-life was 0.8 h. In addition, in “in vivo” (iv, 18 mg/kg), the concentration at 0.083 h worked out at 4850 ± 794 ng/mL, the concentration at 0.25 h was determined as 1130 ± 243 ng/mL, the concentration at 0.5 h turned out to be 377 ± 73.2 ng/mL and the concentration at 1 h was found to be 126 ± 12.3 ng/mL. In addition, in the series “in vivo” (iv, 18 mg/kg), the concentration at 3 h is 8.4 ± 3.1 ng/mL and the concentration at 6 h came out at 2.3 ± 1.6 ng/mL. This compound showed an IC50 at cdk1/cyclin B of 11 nM. In the series with Jurkat, the IC50 is 0.25 µM. Moreover, in the series with Colo-205, the half-inhibitory concentration (IC50) came to 0.01 µM. Moreover, in series [1] (mice, 8 h, Mean ± SD), the “Conc. (ng/ml) in plasma” value was “BLQ^a”. Also, in series [1] (mice, 24 h), the “Conc. (ng/ml) in plasma” value was “BLQ^a”. This compound also displayed a Cls in series [1] (3 mg/kg/compound (18 mg/kg Total Dose), Cassette #2) of 31.6 mL/min/kg. The same compound displayed an IC50 on cdk2/cyclin E of 30 nM. Also, the IC50 with MDA-MB-435 stood at 0.21 µM. Besides, the “Mean Red Blood Cell to Plasma Ratio” value in series [2] was 4.1.
